# Laboratory results published in patent US12662493B2, “Non-immunosuppressive FK506 analogs and use thereof” (The Johns Hopkins University, priority 2019, dated 2026).
# B1: BMP4: recombinant BMP-4 protein, positive control of the BRE reporter (protein, UniProt P12644 293-408, looked up)
# Bone morphogenetic protein 4: SPKHHSQRARKKNKNCRRHSLYVDFSDVGWNDWIVAPPGYQAFYCHGDCPFPLADHLNSTNHAIVQTLVNSVNSSIPKACCVPTELSAISMLYLDEYDKVVLKNYQEMVVEGCGCR
# B2: Noggin: extracellular BMP-inhibitor protein (protein, UniProt Q13253 28-232, looked up)
# Noggin: QHYLHIRPAPSDNLPLVDLIEHPDPIFDPKEKDLNETLLRSLLGGHYDPGFMATSPPEDRPGGGGGAAGGAEDLAELDQLLRQRPSGAMPSEIKGLEFSEGLAQGKKQRLSKKLRRKLQMWLWSQTFCPVLYAWNDLGSRFWPRYVKVGSCFSKRSCSVPEGMVCKPSKSVHLTVLRWRCQRRGGQRCGWIPIQYPIISECKCSC
# Tests used:
# [1] = system: Jurkat T cells; assay: Resazurin-based cell viability assay of Jurkat cells; conditions: 3 days, concentrations up to 10 μM
# Procedure: (§1) Jurkat (E6.1, ATCC) cells were cultured in RPMI with 10% FBS and 1.5% PennStrep. Jurkat cells (1×10^6) were transfected with 10 μg of BRE-Luciferase (kindly provided by Martine Roussel & Peter ten Dijke) or NFAT-Luciferase cDNA (Promega) by electroporation (BioRad, square-wave, 250V, […]) in 400 μL serum/antibiotic free RPMI with 0.5% DMSO. Thirty minutes after transfection, cells were transferred to complete RPMI and rested overnight. Before plating, cells were re-suspended in fresh media and diluted to 0.5×10^6 cells/mL. HEK293T cells were cultured in DMEM with 10% FBS, 1% PennStrep, and 500 μg/mL G418 (Corning). Cells were transfected using SuperFect reagent and supplied transfection protocols. HUVEC cells were cultured in Lonza Endothelial Cell Growth Medium (EGM-2) and used between passages 3 and 7. All cells were cultured at 37° C. with 5% CO2.
# Jurkat or HUVEC cells were plated at 1000 cells/well in 180 μL growth media before addition of 20 μL of 10X drug/protein stock. After incubation for 72 h, 22 μL of a resazurin sodium salt solution (0.1 mg/mL stock in water) was added to each well and allowed to incubate at 37° C. The metabolic conversion of resazurin dye was monitored by absorbance at 570 nm after 6 h. After background subtraction (media only+dye), absorbance values were left as arbitrary absorbance units or normalized to those obtained from cells treated with DMSO.
# [2] = system: BMP signaling pathway (ID1 gene promoter); assay: BMP-response-element (BRE) luciferase pathway reporter in Jurkat T cells; type: cell-based; conditions: for BRE reporter (ID-1 promoter luciferase) activation: 18 h, normalized to DMSO; for reduction of FK506- or FKVP-induced BRE reporter activity: LDN at 100 nM
# Procedure: as §1
# Jurkat T cells transfected with BRE-Luc were split into a 96-well plate (80 μL/well of 0.5×10^6 cells/mL)) and treated with previously stated compounds/proteins (20 μL of 5X stock in RPMI, 0.5% DMSO) for 18 h. rBMP-4 and […] (R&D) were used as positive and negative controls, respectively. Plates were centrifuged at 3000 rpm for 10 min, then carefully aspirated. Cells were re-suspended in 100 μL lysis buffer (per well) and placed on a plate-shaker for 30 min. An aliquot of 80 μL of lysate was transferred to a white-walled 96-well plate, and luminescence was recorded 2 seconds after automated injection of luciferase substrate. Luminescence values were background subtracted (lysis buffer+substrate) and normalized to DMSO control values.
# FKBP12KO Jurkat T cells transfected with FKBP12-SNAP plasmid were selected with 1200 μg/mL G418 for seven days before use in BRE-Luc assays.
# [3] = system: cell migration stimulated by CXCL12; conditions: cited from earlier work
# [4] = system: full-thickness excisional wounds; conditions: mouse, in vivo; cited from earlier work
# [5] = system: BMP type 1 receptor (SMAD1/5 phosphorylation); assay: SMAD1/5 phosphorylation Western blot in Jurkat cells; type: cell-based; conditions: LDN treatment
# [6] = system: full-thickness excisional wounds; assay: In vivo excisional wound model in diabetic GK rats; design: species or system Goto-Kakizaki (GK) type-2 diabetic rats
# Procedure: Goto-Kakizaki (GK) type-2 diabetic rats obtained from Charles River (Boston, MA) were housed in a pathogen-free facility and cared for according to NIH guidelines and a protocol approved by the Johns Hopkins University Animal Care and Use Committee (ACUC). Both male and female GK rats at age of 4-5 months were used in this study.
# (§2) Full-thickness wounds were created in the dorsal skin of rats with a sterile disposable biopsy punch (8 mm in diameter). The animals were injected subcutaneously with saline, AMD3100 (1 mg/kg) plus FK506 (0.1 mg/kg) or AMD3100 (1 mg/kg) plus FKVP (0.1 mg/kg) immediately after wounding and every other day until complete healing, defined as complete re-epithelialization of the wound area. For assessing the role of BMP signaling, animals were injected intraperitoneally (i.p.) with LDN-193189 (2 mg/kg/day) in addition to standard saline or AF treatment. Wounds were evaluated daily according to the method described previously (Lin et al., 2014).
# The one-way analysis of variance (ANOVA) was used to determine the statistically difference in wound healing among AF, AF+LDN, Saline and S+LDN groups or between AF, AV and Saline groups when comparing days of wound healing.
# [7] = system: CD133+ stem cells in wound sites; assay: CD133 immunohistochemistry of wound tissue of GK rats; type: in vivo, Goto-Kakizaki (GK) type-2 diabetic rats; conditions: day 7, versus AF
# Procedure: as §2
# Cut sections of 5 μm were prepared from frozen tissue for immunohistochemistry staining. Frozen sections were fixed with acetone at −20° C. for 10 min and dried for 1 h at room temperature. After inactivation of endogenous peroxidase and blocking of nonspecific antibody binding, the specimens were incubated with anti-CD133 (1:300, ab19898; Abcam) at 4° C. overnight. The tissue sections were then subsequently incubated with biotin-conjugated goat anti-rabbit IgG (1:200, #14708S Cell Signaling, Danvers, MA) for 30 minutes at room temperature. The VectaStain Elite ABC kit (HRP) (Vector Laboratories, Burlingame, CA) was used to increase the sensitivity of the staining. […]
molecule,measurement,setting,value
C=CC[C@@H]1/C=C(\C)C[C@H](C)C[C@H](OC)[C@H]2O[C@@](O)(C(=O)C(=O)N3CCCC[C@H]3C(=O)O[C@H](/C(C)=C/[C@@H]3CC[C@@H](O)[C@H](OC)C3)[C@H](C)[C@@H](O)CC1=O)[C@H](C)C[C@@H]2OC [FK506],cell viability,[1],did not affect cell viability
"c1cc(CN2CCCNCCNCCCNCC2)ccc1CN1CCCNCCNCCCNCC1 [AMD3100, 1,1′-[1,4-phenylenebis(methylene)]bis-1,4,8,11-tetraazacyclo-tetradecane]",BRE reporter (ID-1 promoter luciferase) activation,[2],no effect on ID-1 promoter stimulation
same,IC50,[3],51 ± 17 nM
same,"healing, AMD3100 treatment alone",[4],only slightly faster healing
c1ccc2c(-c3cnn4cc(-c5ccc(N6CCNCC6)cc5)cnc34)ccnc2c1 [LDN-193189],effect on FK506/FKVP-induced SMAD1/5 phosphorylation,[5],abolished
same,reduction of FK506- or FKVP-induced BRE reporter activity,[2],completely blocked
same,"time for complete healing, LDN added to AF combination",[6]; LDN-193189 2 mg/kg/day i.p. plus AF,25 days
same,"effect on wound healing, LDN alone",[6]; LDN-193189 2 mg/kg/day i.p. with saline,no effect on wound healing
same,"number of CD133+ cells in the wounds, LDN added to AF combination",[7],dramatically reduced
B1,BRE reporter (ID-1 promoter luciferase) activation,[2],strong induction of luciferase expression
B2,reduction of FK506- or FKVP-induced BRE reporter activity,[2],not effective at reducing
